Results published in patent US20120252853A1, “Positive allosteric modulators of nicotinic acetylcholine receptor” (H. Lundbeck A/S, priority 2011, published 2012).

How the values were obtained:
human KCNQ2 = target: T1, human KCNQ2 (Homo sapiens, UniProt O43526); test: 86Rb flux in KCNQ2 expressing cells; type: cell-based; conditions: KCNQ2 opening; for EC50: 86Rb efflux, CHO-K1 cells stably transfected with human KCNQ2; for Emax: Max effect determined in % of the effect of 30 mM KCl
T1 construct: expressed in transfected cells
Method: Chinese hamster ovary cells (CHO-K1) were stably transfected with human KCNQ2 inserted into the pCl-neo vector (Promega). Cells were plated at 2×10^5 cells/ml in 96-well plates in 100 μl media (MEM Alpha media, 10% FBS, 1% P/S, 1% L-Glu, and 1 mg/ml G418). At the time of plating the cells were furthermore loaded with 1 μCi/ml 86Rb over-night. On the subsequent day, the cells were washed with 3×50 μl assay buffer (HBSS+10 mM HEPES, pH 7.4) and incubated in 50 μl buffer with retigabine for 30 minutes at 37° C. Following this preincubation, the cell membrane was depolarized for 30 minutes at 37° C. with 15 mM KCl (final concentration) in assay buffer supplemented with the appropriate amount of compound to maintain drug concentration. The supernatant was removed and placed in pony-vials with 0.5 ml scintillation liquid and counted. The dose-dependent effect of the investigated compounds on the efflux of 86Rb through the hKCNQ2 channels were calculated according to the four parameter logistic equation: Y=Bottom+(Top-Bottom)/(1+10̂((LogEC50-X)*HillSlope)), where X is the logarithm of concentration, Y is the response, and HillSlope is the hill coefficient.
A representative selection of compounds of the invention were tested in the assay in addition to 6 comparative examples wherein 0 has been substituted with a 6-membered ring comprising up to two N atoms. Comparative 1-4 has been disclosed in WO 2009/127678 or WO 2009/127679 and comparative 5-6 are close analogues.

human α7 receptor = human α7 receptor (Homo sapiens, UniProt P36544); test: α7 NNR flux assay (FDSS Ca assay); type: cell-based; conditions: positive allosteric modulation; rat GH4C1 cell line stably expressing human α7; acetylcholine 20 μM; % modulation relative to PNU-120596 set to 100%
Method in brief: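 GH4C1 rat cells stably expressing human α7, loaded with Calcium-4 dye plus 2.5 mM probenecid in HBSS/20 mM HEPES pH 7.4, 3 mM CaCl2. Compounds (0.039–20 μM final) preincubated ~95 s before 20 μM acetylcholine (~EC100); Ex480/Em540 fluorescence on FDSS. Values are % modulation, with 3 μM PNU-120596 set to 100%.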

[1] = system: α7 nACh receptors expressed in Xenopus oocytes; test: α7 NNR oocyte assay (electrophysiological recordings); type: cell-based, human or rat; conditions: tested subsequently in the oocyte assay
Method: Expression of α7 nACh Receptors in Xenopus oocytes.
Oocytes were surgically removed from mature female Xenepus laevis anaesthetized in 0.4% MS-222 for 10-15 min. The oocytes were then digested at room temperature for 2-3 hours with 0.5 mg/ml collagenase (type IA Sigma-Aldrich) in OR2 buffer (82.5 mM NaCl, 2.0 mM KCl, 1.0 mM MgCl2 and 5.0 mM HEPES, pH 7.6). Oocytes avoid of the follicle layer were selected and incubated for 24 hours in Modified Barth's Saline buffer (88 mM NaCl, 1 mM […], 15 mM HEPES, 2.4 mM NaHCO3, 0.41 mM CaCl2, 0.82 mM MgSO4, 0.3 mM Ca(NO3)2) supplemented with 2 mM sodium pyruvate, 0.1 μg/l penicillin and 0.1 μg/l streptomycin. Stage 1V oocytes were identified and injected with 4.2-48 nl of nuclease free water containing 0.1-1.2 ng of cRNA coding for human α7 nACh receptors or 3.0-32 ng of cRNA coding for rat α7 nACh receptors and incubated at 18° C. for 1-10 days when they were used for electrophysiological recordings.
Electrophysiological Recordings of α7 nACh Receptors Expressed in Oocytes.
Oocytes were used for electrophysiological recordings 1-10 days after injection. Oocytes were placed in a 1 ml bath and perfused with Ringer buffer (115 mM NaCl, 2.5 mM KCl, 10 mM HEPES, 1.8 mM CaCl2, 0.1 mM MgCl2, pH 7.5). Cells were impaled with agar plugged 0.2-1 MΩ electrodes containing 3 M KCl and voltage clamped at −90 mV by a GeneClamp 500B amplifier. The experiments were performed at room temperature. Oocytes were continuously perfused with Ringer buffer and the drugs were applied in the perfusate. ACh (30 μM) applied for 30 sec were used as the standard agonist for activation of the α7 nACh receptors. In the standard screening set-up the new test compound (10 μM or 30 μM) were applied for 1 min of pre-application allowing for evaluation of agonistic activity followed by 30 sec of co-application with ACh (30 μM) allowing for evaluation of PAM activity. […] The drug induced effects on both the peak response and the total charge (AUC) response were calculated thus giving the effect of drug induced PAM activity as fold modulation of the control response. […]

human α7 receptor, sequence (P36544 23-502): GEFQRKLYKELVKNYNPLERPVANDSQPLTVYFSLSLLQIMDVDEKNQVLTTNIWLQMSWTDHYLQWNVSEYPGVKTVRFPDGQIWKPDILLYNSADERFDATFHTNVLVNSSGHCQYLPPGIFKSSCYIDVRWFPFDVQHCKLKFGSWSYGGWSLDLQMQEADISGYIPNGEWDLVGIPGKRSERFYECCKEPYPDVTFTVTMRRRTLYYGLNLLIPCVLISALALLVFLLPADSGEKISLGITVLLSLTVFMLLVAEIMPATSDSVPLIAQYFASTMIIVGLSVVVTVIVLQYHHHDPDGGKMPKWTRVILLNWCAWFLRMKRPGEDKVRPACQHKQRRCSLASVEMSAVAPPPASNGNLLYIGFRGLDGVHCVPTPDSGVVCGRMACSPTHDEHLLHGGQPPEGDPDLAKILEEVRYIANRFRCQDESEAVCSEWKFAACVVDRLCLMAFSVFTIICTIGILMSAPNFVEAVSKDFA

SMILES | EC50 (human KCNQ2) [µM] | Emax (human KCNQ2) [%] | EC50 (human α7 receptor) [µM] | NNR PAM activity in the oocyte assay compared with the flux assay [1]
Cc1cc(C(=O)NC(C)c2ccc3[nH]c(C(F)(F)F)cc3c2)on1 (single isomer, unassigned) [Compound 96, 3-methyl-N-[1-[2-(trifluoromethyl)-1H-indol-5-yl]ethyl]isoxazole-5-carboxamide] | > 50 | 5.4 | 4.2 | –
Cc1cc2cc(CNC(=O)c3occc3C)ccc2[nH]1 [Compound 1, 3-methyl-N-[(2-methyl-1H-indol-5-yl)methyl]furan-2-carboxamide] | > 50 | 2 | 2.7 | –
Cc1cc2cc(CNC(=O)c3ccc(C)s3)ccc2[nH]1 [Compound 24, 5-methyl-N-[(2-methyl-1H-indol-5-yl)methyl]thiophene-2-carboxamide] | > 50 | 5 | 0.34 | –
Cc1cc(C(=O)NCc2ccc3[nH]c(C)cc3c2)on1 [Compound 28, 3-methyl-N-[(2-methyl-1H-indol-5-yl)methyl]isoxazole-5-carboxamide] | – | 5.7 | 2.97 | –
Cc1cc2cc(CNC(=O)c3cnn(C)c3)ccc2[nH]1 [Compound 29, 1-methyl-N-[(2-methyl-1H-indol-5-yl)methyl]pyrazole-4-carboxamide] | > 50 | 4 | 9.25 | –
Cn1cc(C(=O)NCc2ccc3[nH]c(C(F)(F)F)cc3c2)cn1 [Compound 30, 1-methyl-N-[[2-(trifluoromethyl)-1H-indol-5-yl]methyl]pyrazole-4-carboxamide] | > 50 | 9.6 | 5.8 | –
Cc1cc2cc(CNC(=O)c3cc(C(C)C)no3)ccc2[nH]1 [Compound 34, 3-isopropyl-N-[(2-methyl-1H-indol-5-yl)methyl]isoxazole-5-carboxamide] | – | 1 | 0.9 | significantly better NNR PAM activity
Cc1cc2cc(CNC(=O)c3cnc(C)s3)ccc2[nH]1 [Compound 35, 2-methyl-N-[(2-methyl-1H-indol-5-yl)methyl]thiazole-5-carboxamide] | – | 7.5 | 2.45 | –
Cc1cc2cc(CNC(=O)c3cnn(CC(F)(F)F)c3)ccc2[nH]1 [Compound 36, N-[(2-methyl-1H-indol-5-yl)methyl]-1-(2,2,2-trifluoroethyl)pyrazole-4-carboxamide] | – | 3.3 | 1.49 | –
O=C(NCc1ccc2[nH]c(C(F)(F)F)cc2c1)c1cnn(CC(F)(F)F)c1 [Compound 40, 1-(2,2,2-trifluoroethyl)-N-[[2-(trifluoromethyl)-1H-indol-5-yl]methyl]pyrazole-4-carboxamide] | > 50 | 2.4 | 3.5 | –
Cc1cc(C(=O)N[C@H](C)c2ccc3[nH]c(C)cc3c2)sn1 [Compound 47, 3-methyl-N-[(1R)-1-(2-methyl-1H-indol-5-yl)ethyl]isothiazole-5-carboxamide] | – | – | > 20 | significantly better NNR PAM activity
Cc1cc(C(=O)N[C@H](C)c2ccc3[nH]c(C)cc3c2)on1 [Compound 61, 3-methyl-N-[(1R)-1-(2-methyl-1H-indol-5-yl)ethyl]isoxazole-5-carboxamide] | – | -5 | 2.33 | –
Cc1cc(C(=O)NCc2ccc3[nH]c(C(F)(F)F)cc3c2)on1 [Compound 65, 3-methyl-N-[[2-(trifluromethyl)-1H-indol-5-yl]methyl]isoxazole-5-carboxamide] | – | 8.1 | 5 | –
Cc1ncc(C(=O)NCc2ccc3[nH]c(C(F)(F)F)cc3c2)s1 [Compound 66, 2-methyl-N-[[2-(trifluoromethyl)-1H-indol-5-yl]methyl]thiazole-5-carboxamide] | > 50 | 3.7 | 8.8 | –
CC(C)c1cc(C(=O)NCc2ccc3[nH]c(C(F)(F)F)cc3c2)on1 [Compound 67, 3-isopropyl-N-[[2-(trifluoromethyl)-1H-indol-5-yl]methyl]isoxazole-5-carboxamide] | > 50 | 5.3 | 6.1 | –
Cc1cc2cc([C@@H](C)NC(=O)c3cnn(CC(F)(F)F)c3)ccc2[nH]1 [Compound 86, N-[(1R)-1-(2-methyl-1H-indol-5-yl)ethyl]-1-(2,2,2-trifluoroethyl)pyrazole-4-carboxamide] | – | – | > 20 | significantly better NNR PAM activity
N#Cc1ccc(C(=O)NCc2ccc3[nH]c(C(F)(F)F)cc3c2)cn1 [Compound C4, 6-Cyano-N-(2-trifluoromethyl-1H-indol-5-ylmethyl)-nicotinamide, reference compound] | > 50 | 15 | – | –
COc1ccc(C(=O)NCc2ccc3[nH]c(C)cc3c2)cc1 [Compound C5, 4-Methoxy-N-(2-methyl-1H-indol-5-ylmethyl)-benzamide, reference compound] | > 50 | 17 | – | –
Cc1cc2cc(CNC(=O)c3ccccc3F)ccc2n1C [Compound C6, N-(1,2-Dimethyl-1H-indol-5-ylmethyl)-2-fluoro-benzamide, reference compound] | > 50 | 13 | – | –
